The test has as its system BDF1 mice, B16 melanoma ip, median survival T/C. Kind of test: NCI In Vivo Anticancer Drug Screen. Data for tumor model B16 Melanoma (intraperitoneal) in B6D2F1 (BDF1) mice. The note with it: endpoint: median survival time, higher = longer survival. How it is done:
The antitumor activity of compounds was measured in mice bearing transplantable tumors. Survival or tumor size were measured and the results are expressed as the measurement made in the treated group (T) divided by the measurement made in the vehicle treated control group (C). The tumor model used in this assay is B16 Melanoma (intraperitoneal) in B6D2F1 (BDF1) mice

[1] abbreviates: dose: 6.25 mg/kg/injection, schedule: Q01DX009 (ip), vehicle: saline.
Where [2] appears, read: dose: 6.25 mg/kg/injection, schedule: Q01DX009 (ip), vehicle: Klucel (hydroxypropylcellulose) (HPC).
[3] abbreviates: dose: 12.5 mg/kg/injection, schedule: Q01DX009 (ip), vehicle: Klucel (hydroxypropylcellulose) (HPC).
Where [4] appears, read: dose: 100.0 mg/kg/injection, schedule: Q01DX009 (ip), vehicle: Klucel (hydroxypropylcellulose) (HPC).
Setting [5] is: dose: 200.0 mg/kg/injection, schedule: Q01DX009 (ip), vehicle: Klucel (hydroxypropylcellulose) (HPC).
[6] abbreviates: dose: 25.0 mg/kg/injection, schedule: Q01DX009 (ip), vehicle: Klucel (hydroxypropylcellulose) (HPC).
[7] abbreviates: dose: 50.0 mg/kg/injection, schedule: Q01DX009 (ip), vehicle: Klucel (hydroxypropylcellulose) (HPC).

The source of these data is PubChem BioAssay AID192 (DTP/NCI, 2004).

Several values for one entry are separate records, joined by “and”; a condition that tells them apart may be missing. Equal values may be shown once. Toxic doses and inconclusive results are not listed.

In the case of `CCN(CC)[P+](c1ccccc1O)(N(CC)CC)N(CC)CC`, the T/C is 100 % of control (dose: 1.56 mg/kg/injection, schedule: Q01DX009 (ip), vehicle: saline); 105 % of control (dose: 3.12 mg/kg/injection, schedule: Q01DX009 (ip), vehicle: saline); 107 % of control and 114 % of control under setting [1].

Consider `Cc1cc(C)c([I+]c2c(C)cc(C)cc2C)c(C)c1`, for which the T/C (dose: 1.5 mg/kg/injection, schedule: Q01DX009 (ip), vehicle: suspension in saline) was 103 % of control; the T/C (dose: 3.0 mg/kg/injection, schedule: Q01DX009 (ip), vehicle: Klucel (hydroxypropylcellulose) (HPC)) was 91 % of control; the T/C (dose: 3.0 mg/kg/injection, schedule: Q01DX009 (ip), vehicle: suspension in saline) was 95 % of control; the T/C (dose: 6.0 mg/kg/injection, schedule: Q01DX009 (ip), vehicle: Klucel (hydroxypropylcellulose) (HPC)) is 91 % of control; the T/C (dose: 6.0 mg/kg/injection, schedule: Q01DX009 (ip), vehicle: suspension in saline) is 100 % of control.

In the case of `CCOC(=O)c1ccc(=O)[nH]c1.[Ag]`, the T/C (dose: 3.13 mg/kg/injection, schedule: Q01DX009 (ip), vehicle: Klucel (hydroxypropylcellulose) (HPC)) was 108 % of control; the T/C under setting [2] is 100 % of control; the T/C under setting [3] is 91 % of control.

`C=C1CCN(c2ccc(OCC)cc2)C1=O`: the T/C was 93 % of control (dose: 4.0 mg/kg/injection, schedule: Q01DX009 (ip), vehicle: saline + alcohol); 95 % of control (dose: 8.0 mg/kg/injection, schedule: Q01DX009 (ip), vehicle: saline + alcohol); 107 % of control (dose: 16.0 mg/kg/injection, schedule: Q01DX009 (ip), vehicle: saline + alcohol); 115 % of control (dose: 32.0 mg/kg/injection, schedule: Q01DX009 (ip), vehicle: saline + alcohol); 93 % of control (dose: 64.0 mg/kg/injection, schedule: Q01DX009 (ip), vehicle: saline + alcohol).

`O=C1NC(=O)/C(=C/c2ccccc2)N1`: the T/C is 100 % of control under setting [4] and 107 % of control under setting [5].

In the case of `C[n+]1ccc(Nc2ccc(NC(=O)c3ccc(Nc4cc[n+](C)c5ccc(N)cc45)cc3N)cc2)cc1`, the T/C by setting is: (dose: 1.0 mg/kg/injection, schedule: Q01DX009 (ip), vehicle: saline with Tween-80) 98 % of control; (dose: 1.0 mg/kg/injection, schedule: Q02DX009 (ip), vehicle: Klucel (hydroxypropylcellulose) (HPC)) 103 % of control and 105 % of control; (dose: 2.0 mg/kg/injection, schedule: Q01DX009 (ip), vehicle: saline with Tween-80) 105 % of control; (dose: 2.0 mg/kg/injection, schedule: Q02DX009 (ip), vehicle: Klucel (hydroxypropylcellulose) (HPC)) 109 % of control and 113 % of control; (dose: 4.0 mg/kg/injection, schedule: Q01DX009 (ip), vehicle: saline with Tween-80) 109 % of control; (dose: 4.0 mg/kg/injection, schedule: Q02DX009 (ip), vehicle: Klucel (hydroxypropylcellulose) (HPC)) 101 % of control and 106 % of control. Also, the T/C is 109 % of control under setting [2]; 104 % of control under setting [1]; 106 % of control (dose: 8.0 mg/kg/injection, schedule: Q01DX009 (ip), vehicle: saline with Tween-80); 108 % of control and 110 % of control (dose: 8.0 mg/kg/injection, schedule: Q02DX009 (ip), vehicle: Klucel (hydroxypropylcellulose) (HPC)); 105 % of control under setting [3]; 102 % of control (dose: 12.5 mg/kg/injection, schedule: Q01DX009 (ip), vehicle: saline). In addition, the T/C (dose: 16.0 mg/kg/injection, schedule: Q01DX009 (ip), vehicle: saline with Tween-80) is 106 % of control; the T/C (dose: 16.0 mg/kg/injection, schedule: Q02DX009 (ip), vehicle: Klucel (hydroxypropylcellulose) (HPC)) is 109 % of control and 113 % of control; the T/C under setting [6] is 89 % of control; the T/C (dose: 32.0 mg/kg/injection, schedule: Q02DX009 (ip), vehicle: Klucel (hydroxypropylcellulose) (HPC)) is 92 % of control and 97 % of control.

For the compound `Cc1nc(NCc2ccccc2)c2cc[nH]c2n1`, the T/C runs as follows: (dose: 0.04 mg/kg/injection, schedule: Q01DX009 (ip), vehicle: saline) 116 % of control; (dose: 0.09 mg/kg/injection, schedule: Q01DX009 (ip), vehicle: saline) 123 % of control; (dose: 0.39 mg/kg/injection, schedule: Q01DX009 (ip), vehicle: saline) 113 % of control.

Take `Oc1ccccc1C(Nc1nc2ccccc2s1)c1ccc2cccnc2c1O` (stereo unspecified): the T/C is 114 % of control under setting [6]; 105 % of control and 119 % of control (2×) under setting [7]; 107 % of control (dose: 75.0 mg/kg/injection, schedule: Q01DX009 (ip), vehicle: Klucel (hydroxypropylcellulose) (HPC)); 110 % of control and 119 % of control under setting [4]; 97 % of control (dose: 150.0 mg/kg/injection, schedule: Q01DX009 (ip), vehicle: Klucel (hydroxypropylcellulose) (HPC)); 124 % of control under setting [5]. For the same compound, the T/C (dose: 400.0 mg/kg/injection, schedule: Q01DX009 (ip), vehicle: Klucel (hydroxypropylcellulose) (HPC)) was 152 % of control.

As for `CC(=N\O)/C(C)=N/O.CC(=N\O)/C(C)=N/O.CC(=N\O)/C(C)=N/O.CC(=N\O)/C(C)=N/O.[CH3-].[CH3-].[Co].[Co]`, the T/C is, setting by setting: under setting [6], 107 % of control; under setting [7], 90 % of control; under setting [4], 100 % of control.

Turning to `CC(=O)CC(=O)NCc1ccncc1`, the T/C is, setting by setting: (dose: 100.0 mg/kg/injection, schedule: Q01DX009 (ip), vehicle: saline) 118 % of control; (dose: 200.0 mg/kg/injection, schedule: Q01DX009 (ip), vehicle: saline) 112 % of control; (dose: 400.0 mg/kg/injection, schedule: Q01DX009 (ip), vehicle: saline) 116 % of control.

For `O=C1NC(c2cccc3ccccc23)Nc2ccccc21` (stereo unspecified), the T/C (dose: 15.6 mg/kg/injection, schedule: Q01DX009 (ip), vehicle: Klucel (hydroxypropylcellulose) (HPC)) was 97 % of control; the T/C (dose: 31.2 mg/kg/injection, schedule: Q01DX009 (ip), vehicle: Klucel (hydroxypropylcellulose) (HPC)) was 100 % of control; the T/C (dose: 62.5 mg/kg/injection, schedule: Q01DX009 (ip), vehicle: Klucel (hydroxypropylcellulose) (HPC)) was 104 % of control; the T/C (dose: 125.0 mg/kg/injection, schedule: Q01DX009 (ip), vehicle: Klucel (hydroxypropylcellulose) (HPC)) was 108 % of control.

With `CN(C)CCCNC(=O)Nc1ccccc1`, the T/C by setting is: under setting [4], 100 % of control; under setting [5], 92 % of control.
